Reference: US8133880B2, “Purine derivatives and methods of use thereof” (Inotek Pharmaceuticals Corporation, priority 2004, dated 2012)

Key:
Assay type in all cases: in vivo
BALB/c mice [1] = experiment: LPS-induced chemokine and cytokine response (serum TNF-α, MIP-1α by ELISA); conditions: for Serum TNF-α mean / Serum MIP-1α mean: serum ninety minutes after LPS
Protocol: (§1) Male BALB/c mice were intraperitoneally administered Compound 54 (at a dose of either 0.3 mg/kg or 1.0 mg/kg) over a 30-minute period. Lipopolysaccharide (LPS) was then administered intraperitoneally at a dose of 1 mg/kg. Ninety minutes after LPS administration, serum was collected and the levels of MIP-1α and TNF-α were analyzed using specific ELISA.
as §1, with “34” for “54”, “0.03” for “either 0.3”, “0.1” for “1.0”, “30 minute” for “30-minute”

BALB/c mice [2] = experiment: Asthma-associated inflammation: OVA aerosol exposure and bronchioalveolar lavage
Protocol: Four-week old male, viral-antibody-free BALB/c mice (Jackson Laboratory, Bar Harbor, Me.) were intraperitoneally immunized with 10 μg ovalbumin (“OVA,” Grade III, Sigma Chemical Co., St. Louis, Mo.) and 1 mg alum (diluted from 2% Alhydrogel; Accurate Sci. Corp., Westbury, N.Y.) in 0.5 mL phosphate-buffered saline (“PBS”) on days 0 and 7. Control mice received 1 mg alum in PBS solution on days 0 and 7.
On day 14, both immunized mice and control mice received a single aerosol exposure to 3% OVA (in PBS) for 30 minutes, followed by intraperitoneal administration of Compound 34 (5 μg per mouse in 0.2 mL buffer solution). About 18 hours after treatment, the mice were sacrificed and bronchioalveolar lavage (“BAL”) was performed on their lungs. The fluid obtained from the mice via the BAL procedure was analyzed and the inflammatory cell counts and level of inflammatory mediators in the fluid samples was measured as described in Virag et al., Med. Sci. Monit. 10:BR77-83 (2004).
On day 14, both immunized mice and control mice received a single aerosol exposure to 3% OVA (in PBS) for 30 minutes, followed by intraperitoneal administration of Compound 24 (5 μg per mouse in 0.2 mL buffer solution). About 18 hours after treatment, the mice were sacrificed and bronchioalveolar lavage (“BAL”) was performed on their lungs. The fluid obtained from the mice via the BAL procedure was analyzed and the inflammatory cell counts and level of inflammatory mediators in the fluid samples was measured as described in Virag et al., Med. Sci. Monit. 10:BR77-83 (2004).

mice = experiment: TPA-induced dermatitis of the ear (ear weight, MPO); conditions: for Right ear (treated) Mean Weight: 10 μL topical, biopsy six hours after application, normal saline 20.2; for Right ear (treated) MPO: ear biopsy six hours after application, normal saline 18.4; for Difference (right minus left ear weight): normal saline 10.1; for Difference (MPO right minus left ear): normal saline 16.8; for Left ear (untreated) MPO / Left ear (untreated) Mean Weight: left ear DMSO vehicle only
Protocol: Dermatitis was induced in the right ear of unanesthetized mice via the topical application of 12-O-tetradecanoylphorbol-13-acetate (TPA) (10 μL, 1% in DMSO) on both the inner and outer surfaces of the right ear. The left ear of each mouse had only vehicle (DMSO, 10 μL) topically applied on both the inner and outer surfaces.
Immediately after application of TPA, the mice were topically treated on the inner and outer surfaces of their right ear only with either: (1) Compound 43 (10 μL, 0.1% in normal saline), (2) Compound 43 (10 μL, 0.3% in normal saline), or (3) normal saline (10 μL).
Six hours after the application of Compound 43 or normal saline, the animals were euthanized using CO2 asphyxiation and a ¼ inch biopsy of both the left and right ear was taken and weighed. The biopsy samples were then analyzed for myloperoxidase (MPO) activity as a marker of neutrophil infiltration using standard methods.

Swiss Webster mice = experiment: Dextran sodium sulfate-induced colitis; conditions: for visual score (1-4) of colon damage: 1 = no damage, 4 = extensive damage, vehicle 2; for Colon Length: twice daily by gavage, seven days with DSS, vehicle 3.97; for MDA / MPO: colon biopsy; for MDA: vehicle 8.7; for MPO: vehicle 209
Protocol: Colitis was induced in Swiss Webster mice by administration of dextran sodium sulfate (DSS) (5%, dissolved in distilled water, molecular weight 30-40 kDa) ad libitum for a total period of seven days. During this seven-day period, and concomitant with the administration of DSS, the mice were separately administered Compound 54 twice daily by gavage at a total daily dose of 0.1 mg/kg/day, 0.3 mg/kg/day or 1 mg/kg/day. At the end of the seventh day of administration of both DSS and Compound 54, the mice were euthanized and their colon was removed, measured, visually analyzed and colon biopsy samples were analyzed for malondialdehyde (MDA) and myeloperoxidase (MPO) levels.

[3] = 5 μg per mouse i.p., BAL fluid about 18 hours after treatment
[4] = animals given 0.1% on the right ear
[5] = animals given 0.3% on the right ear

CCNC(=O)[C@H]1O[C@@H](n2cnc3c(N)nc(N/N=C/C4CCC=CO4)nc32)[C@H](O)[C@@H]1O (mixture of isomers) [Compound 34]
Serum TNF-α mean (BALB/c mice [1]; 0.03 mg/kg i.p. before LPS 1 mg/kg i.p., LPS alone 1949): 814 pg/mL | Serum MIP-1α mean (BALB/c mice [1]; 0.03 mg/kg i.p. before LPS 1 mg/kg i.p., LPS alone 2544): 1182 pg/mL | LPS-induced increase in TNF-α and MIP-1α (BALB/c mice [1]; 0.03 mg/kg or 0.1 mg/kg i.p.): dose-dependently reduces | Serum TNF-α mean (BALB/c mice [1]; 0.1 mg/kg i.p. before LPS 1 mg/kg i.p., LPS alone 1949): 552 pg/mL | Serum MIP-1α mean (BALB/c mice [1]; 0.1 mg/kg i.p. before LPS 1 mg/kg i.p., LPS alone 2544): 981 pg/mL | inflammatory cell infiltration into the BAL fluid, reduction (BALB/c mice [2]; 5 μg per mouse i.p. after OVA aerosol, BAL about 18 hours after treatment, treated vs. control animals, p<0.01): 70±19% | MIP-1α levels, reduction relative to control (BALB/c mice [2]; [3]): 74% | TNF-α levels, reduction relative to control (BALB/c mice [2]; [3]): 30% | white blood cell counts, reduction relative to control (BALB/c mice [2]; [3]): 70% | MIP-1α (BALB/c mice [2]; BAL fluid, 5 μg per mouse i.p., untreated mice 58 ± 19): 15 ± 5 pg/mL | TNF-α (BALB/c mice [2]; BAL fluid, 5 μg per mouse i.p., untreated mice 81 ± 27): 56 ± 18 pg/mL

CCNC(=O)[C@H]1O[C@@H](n2cnc3c(N)nc(N/N=C/[C@H]4CCC=CO4)nc32)[C@H](O)[C@@H]1O [Compound 43]
MPO levels in the treated right ears (mice; 0.1% and 0.3% topical, compared to TPA and normal saline): decreased | elevated weight in the right ear caused by the TPA-induced dermatitis (mice; 0.1% and 0.3% topical, compared to animals receiving normal saline only): reduced in a dose-dependent fashion | Right ear (treated) Mean Weight (mice; 0.1% in normal saline): 17.7 mg | Right ear (treated) MPO (mice; 0.1% topical): 1.04 ug/sample | Difference (right minus left ear weight) (mice; 0.1% topical): 5.3 mg | Difference (MPO right minus left ear) (mice; 0.1% topical): 0.67 | Right ear (treated) Mean Weight (mice; 0.3% in normal saline): 13.6 mg | Right ear (treated) MPO (mice; 0.3% topical): 3.34 ug/sample | Difference (right minus left ear weight) (mice; 0.3% topical): 0.1 mg | Difference (MPO right minus left ear) (mice; 0.3% topical): 1.65 | Left ear (untreated) MPO (mice; [4]): 0.37 ug/sample | Left ear (untreated) Mean Weight (mice; [4]): 12.4 mg | Left ear (untreated) MPO (mice; [5]): 1.69 ug/sample | Left ear (untreated) Mean Weight (mice; [5]): 13.5 mg

CNC(=O)[C@H]1O[C@@H](n2cnc3c(NC)nc(C#N)nc32)[C@H](O)[C@@H]1O [Compound 54]
colon shortening (Swiss Webster mice; 0.1, 0.3 or 1 mg/kg/day, compared to animals treated with vehicle): protected against colon shortening | levels of MDA and MPO (Swiss Webster mice; 0.1, 0.3 or 1 mg/kg/day, dose-dependent, compared to animals treated with vehicle): lowered | visual score (1-4) of colon damage (Swiss Webster mice; Dose 0.1 mg/ml): 1.5 | Colon Length (Swiss Webster mice; Dose 0.1 mg/ml): 4.95 cm | visual score (1-4) of colon damage (Swiss Webster mice; Dose 0.3 mg/ml): 1.2 | Colon Length (Swiss Webster mice; Dose 0.3 mg/ml): 5.51 cm | visual score (1-4) of colon damage (Swiss Webster mice; Dose 1 mg/ml): 1.4 | Colon Length (Swiss Webster mice; Dose 1 mg/ml): 5.87 cm | MDA (Swiss Webster mice; Dose 0.1 mg/ml): 7.4 nmol/mg protein | MPO (Swiss Webster mice; Dose 0.1 mg/ml): 345 mμ/mg protein | MDA (Swiss Webster mice; Dose 0.3 mg/ml): 7.4 nmol/mg protein | MPO (Swiss Webster mice; Dose 0.3 mg/ml): 138 mμ/mg protein | MDA (Swiss Webster mice; Dose 1 mg/ml): 4.4 nmol/mg protein | MPO (Swiss Webster mice; Dose 1 mg/ml): 30 mμ/mg protein | Serum MIP-1α mean (BALB/c mice [1]; 0.3 mg/kg i.p. before LPS 1 mg/kg i.p., LPS alone 4150): 4298 pg/mL | Serum TNF-α mean (BALB/c mice [1]; 0.3 mg/kg i.p. before LPS 1 mg/kg i.p., LPS alone 9741): 5733 pg/mL | LPS-induced increase in TNF-α and MIP-1α (BALB/c mice [1]; 0.3 mg/kg or 1.0 mg/kg i.p.): dose-dependently reduces | Serum MIP-1α mean (BALB/c mice [1]; 1.0 mg/kg i.p. before LPS 1 mg/kg i.p., LPS alone 4150): 3906 pg/mL | Serum TNF-α mean (BALB/c mice [1]; 1.0 mg/kg i.p. before LPS 1 mg/kg i.p., LPS alone 9741): 3727 pg/mL
